Several values for one entry are separate records, joined by “and”; a condition that tells them apart may be missing. Equal values may be shown once.
How the values were obtained:
[1] = molecular target: T1, chymotrypsin-like proteasome activity in packed whole blood lysate (Mus musculus, UniProt O55234); assay: Whole blood proteasome activity (packed whole blood lysate, PWBL) of treated mice; type: in vivo
T1 construct: The supernatant (Packed Whole Blood Lysate, PWBL) was transferred to a fresh tube; from tissue; host or cells: packed whole blood cells of Swiss-Webster mice, hypotonic lysate
T1 sequence (O55234 60-264): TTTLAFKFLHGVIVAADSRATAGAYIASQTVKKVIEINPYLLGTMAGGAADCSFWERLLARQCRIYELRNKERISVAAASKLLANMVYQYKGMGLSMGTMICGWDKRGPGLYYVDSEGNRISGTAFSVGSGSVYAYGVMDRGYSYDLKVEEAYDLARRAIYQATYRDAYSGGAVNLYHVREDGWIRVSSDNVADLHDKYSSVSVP
Protocol: In brief, frozen whole blood samples were thawed on ice for one hour, and resuspended in 700 μL of ice cold 5 mM EDTA, pH 8.0 in order to lyse the cells by hypotonic shock. This represents approximately 2-3 times the volume of the packed whole blood cells. Lysis was allowed to proceed for one hour, and the cellular debris was removed by centrifuigation at 14,000×g for 10 minutes. The supernatant (Packed Whole Blood Lysate, PWBL) was transferred to a fresh tube, and the pellet discarded. Protein concentration of the PWBL was determined by BCA assay (Pierce) using BSA as a standard.
Proteasome activity was determined by measuring the hydrolysis of a fluorogenic substrate specific for the chymotrypsin-like activity of proteasomes (suc-LLVY-AMC, Bachem Cat. 1-1395). […] Hydrolysis of the substrate results in the release of free AMC, which was measured fluorometrically by using λex=390 nm and λem=460 nm. The rate of hydrolysis in this system is linear for at least one hour. The hydrolysis rate of each sample is then normalized to relative fluorescent units per milligram of protein (RFU/mg).
The vehicle control consisted of 2% DMSO in 10% solutol. […] Packed whole blood cells were collected by centrifugation, washed with PBS, and re-centrifuged. All samples were stored at −80° C. prior to the evaluation of the proteasome activity. […]

[2] = test system: MIA PaCa-2 cells; assay: Cell growth inhibition (resazurin, 48 hours), MIA PaCa-2; type: cell-based; conditions: Table 2, MIA PaCa-2, human pancreatic carcinoma, read-out: EC50 (nM), mean ± SD
[3] = test system: PANC-1 cells; assay: Cell growth inhibition (resazurin, 48 hours), PANC-1; type: cell-based; conditions: Table 2, PANC-1, human pancreatic carcinoma, read-out: EC50 (nM), mean ± SD
[4] = test system: SK-MEL-28 melanoma cells; assay: NCI screen, SK-MEL-28; type: cell-based; conditions: Homo sapiens, SK-MEL-28, read-out: LC50
Protocol: A detailed description of the screening procedure can be found at hypertext transfer protocol (http://) “dtp.nci.nih.gov/branches/btb/ivclsp.html.”
In brief, each of the 60 human tumor cell lines were grown in RPMI 1640 medium, supplemented with 5% fetal bovine serum and 2 mM L-glutamine. Cells were plated at their appropriate density in 96-well microtiter plates and incubated at 37° C., 5% CO2, 95% air and 100% relative humidity. […] Cells were incubated for an additional 48 hours and a sulforhodamine B protein assay was used to estimate cell viability or growth.

[5] = molecular target: CYP3A4 (Homo sapiens, UniProt P08684); assay: Preliminary P450 inhibition screen, CYP3A4
Sequence of CYP3A4 (P08684 whole entry): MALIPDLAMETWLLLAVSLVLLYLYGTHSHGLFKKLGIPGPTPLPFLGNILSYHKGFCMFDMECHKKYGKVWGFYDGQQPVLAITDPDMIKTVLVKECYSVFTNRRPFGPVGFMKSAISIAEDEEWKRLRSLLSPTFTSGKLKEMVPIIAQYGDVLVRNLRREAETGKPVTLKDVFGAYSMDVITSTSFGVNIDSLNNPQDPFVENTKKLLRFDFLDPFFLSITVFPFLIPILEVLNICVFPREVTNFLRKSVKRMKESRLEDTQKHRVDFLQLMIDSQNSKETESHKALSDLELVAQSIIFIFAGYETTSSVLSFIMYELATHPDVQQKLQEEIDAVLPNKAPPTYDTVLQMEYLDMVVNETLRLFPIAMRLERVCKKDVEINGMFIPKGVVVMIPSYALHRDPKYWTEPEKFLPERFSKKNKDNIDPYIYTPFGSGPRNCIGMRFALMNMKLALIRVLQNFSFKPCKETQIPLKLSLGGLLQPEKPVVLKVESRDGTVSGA
Source text: (§1) These studies consisted of solubility assessment, LogD^7.4 determination and a preliminary screen to detect cytochrome P450 enzyme inhibition.

[6] = Cytotoxicity / growth inhibition, summary over several cell lines; conditions: human, mouse
[7] = test system: tumor cell lines; assay: as above; conditions: 48 h, read-out: EC50 values against RPMI 8226 and the prostate cell lines
[8] = test system: HEK293 cells; assay: Cell growth inhibition (resazurin, 48 hours), HEK293; type: cell-based; conditions: Table 2, HEK293, human embryonic kidney, read-out: EC50 (nM), mean ± SD
[9] = LogD7.4 determination; conditions: pH 7.4
Source text: as §1

[10] = test system: p21 and p27 in HEK293 cells and HEK293 NF-κB/Luciferase reporter clone; assay: Western blot of cell cycle regulatory proteins p21 and p27; type: cell-based, human; conditions: various concentrations, preliminary results
Source text: The ubiquitin-proteasome pathway is an essential proteolytic system involved in cell cycle control by regulating the degradation of cyclins and cyclin-dependent kinase (Cdk) inhibitors such as p21 and p27. Pagano, et al., Science 269:682 (1995), Kisselev, et al., Chem Biol 8:739 (2001), King, et al., Science 274:1652 (1996). Furthermore, p21 and p27 protein levels are increased in the presence of proteasome inhibitors. Fukuchi, et al., Biochim Biophys Acta 1451:206 (1999), Takeuchi, et al., Jpn J Cancer Res 93:774 (2002).
The Western blots presented in FIG. 33 were reprobed using antibodies against p21 and p27 to determine the endogenous level of each protein and anti-Tubulin antibody was used to confirm equal loading of protein.

[11] = molecular target: CYP2C19 (Homo sapiens, UniProt P33261); assay: Preliminary P450 inhibition screen, CYP2C19
Sequence of CYP2C19 (P33261 whole entry): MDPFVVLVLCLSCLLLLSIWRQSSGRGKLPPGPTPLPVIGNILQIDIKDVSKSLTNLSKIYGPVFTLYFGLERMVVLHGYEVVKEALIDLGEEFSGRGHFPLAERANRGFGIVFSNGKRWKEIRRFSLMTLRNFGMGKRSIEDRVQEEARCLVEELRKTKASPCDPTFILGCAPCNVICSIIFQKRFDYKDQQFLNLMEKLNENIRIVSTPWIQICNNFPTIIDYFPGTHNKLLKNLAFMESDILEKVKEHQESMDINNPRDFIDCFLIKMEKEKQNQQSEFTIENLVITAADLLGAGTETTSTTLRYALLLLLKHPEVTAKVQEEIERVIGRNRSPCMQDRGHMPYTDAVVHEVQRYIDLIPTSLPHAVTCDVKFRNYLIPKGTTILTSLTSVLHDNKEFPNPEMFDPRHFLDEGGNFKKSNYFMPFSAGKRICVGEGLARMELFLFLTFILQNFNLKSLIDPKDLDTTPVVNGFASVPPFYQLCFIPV
Source text: as §1

[12] = molecular target: chymotrypsin-like activity of human erythrocyte 20S proteasomes (Homo sapiens, UniProt P28074); assay: biochemical; conditions: EC50, chymotrypsin-like activity of human erythrocyte 20S proteasomes, separate lots of proteasomes
Protocol: The substrate, suc-LLVY-AMC, was prepared as a 20 mM solution in DMSO and stored at −20° C. Human erythrocyte 20S proteasomes were obtained from BIOMOL (Cat. # SE-221). The proteasome can cleave suc-LLVY-AMC into suc-LLVY and free AMC and the activity can then be determined by measuring the fluorescence of the released AMC (λex=390 nm and λem=460 nm ). The proteasomes were activated by SDS and stored on ice as with the experiments using rabbit muscle proteasomes. […] The series was then diluted 20-fold with assay buffer and pre-incubated with proteasomes at 37° C. The reaction was initiated with substrate, and the release of AMC was followed in a Fluoroskan microplate fluorimeter. Data were collected and plotted as the mean of triplicate points.

**Q.** Which results are given for `C[C@@]12OC(=O)[C@]1([C@@H](O)[C@@H]1C=CCCC1)NC(=O)[C@@H]2CCCl` [Formula II-16, Salinosporamide A]?
**A.** proteasomal activity in PWBL ([1]; male Swiss-Webster mice, i.v. or oral, 90 minutes after administration (FIG. 40)): profound decrease in proteasomal activity in PWBL; inhibition at […] ([1]; mouse, iv, 0.25 mg/kg i.v., mice, read-out: ex vivo proteasome inhibition in packed whole blood): 94 ± 3%; EC50 [2]: 46 nM; EC50 [3]: 60 nM; CC50 [4]: < 10 nM; inhibition at 10 µM [5]: 6%; EC50 at 48 h [6]: 10 to 200 nM; EC50 [7]: 10 to 37 nM; EC50 [8]: 47 nM; LogD7.4 [9]: 2.4; p21 and p27 protein levels [10]: elevated; inhibition at 10 µM [11]: 22%; EC50 [12]: ~0.25 nM and 0.045 to 0.247 nM and 0.045 to 0.25 nM
